Test results from US8084457B2, “Pharmaceutically active 4,6-disubstituted aminopyrimidine derivatives as modulators of protein kinases” (Lead Discovery Center GmbH, priority 2003, dated 2011).

Legend:
CDK2/CyclinA = molecular target: T1, CDK2/CyclinA (Homo sapiens, UniProt P24941); assay: Kinase assay determining CDK2/CyclinA activity; format: biochemical; details: read-out: CDK2 (activity range)
T1 construct: purchased Proqinase
Protocol: Kinase Assays Determining CDK2/CyclinA and CDK5/p35 Activity:
Kinase assays were performed as described by the manufacturers recommendations (Proqinase for CDK2/CyclinA and Upsate for CDK5/p35).

CDK9/Cyclin T1 = molecular target: T2, CDK9/Cyclin T1 (Homo sapiens, UniProt P50750); assay: Kinase assay using CDK9/Cyclin T1; format: biochemical; details: read-out: CDK9 (activity range)
T2 construct: made in house; host or cells: HEK293 cells, recombinant adenovirus
Source text: Cloning of CDK9 and Cyclin T1:
Both cDNA fragments were cloned by PCR into pDONR201 vectors using the gateway recombination system (Invitrogen) according to the manufacturer's recommendations. The fragments were subcloned into a gateway-adapted shuttle vector (pPM7) for production of recombinant adenovirus. All plasmids were verified by restriction digests and sequencing analysis.
Expression and Purification of CDK9/Cyclin T1 Proteins:
Expression and purification was in principle performed as described by Cotten et al. (M. Cotten et al., Nucleic acids research, 2003, 31(28), 128).
Kinase Assay Using CDK9/Cyclin T1:
Kinase assays were performed in principle as described by Cotten et al. (M. Cotten et al., Nucleic acids research, 2003, 31(28), 128).

T2 sequence (P50750 whole entry): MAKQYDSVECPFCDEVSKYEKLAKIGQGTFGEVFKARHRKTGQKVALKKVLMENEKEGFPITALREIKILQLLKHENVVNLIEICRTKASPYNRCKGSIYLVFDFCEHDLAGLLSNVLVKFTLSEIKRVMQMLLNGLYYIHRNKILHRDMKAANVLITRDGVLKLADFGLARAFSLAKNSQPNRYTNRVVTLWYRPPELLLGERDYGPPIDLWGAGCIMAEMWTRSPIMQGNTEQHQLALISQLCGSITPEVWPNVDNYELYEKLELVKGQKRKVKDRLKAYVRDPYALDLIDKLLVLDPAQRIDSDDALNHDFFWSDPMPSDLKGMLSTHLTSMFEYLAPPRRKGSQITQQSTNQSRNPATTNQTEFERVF
T2 sequence (O60563 whole entry partner): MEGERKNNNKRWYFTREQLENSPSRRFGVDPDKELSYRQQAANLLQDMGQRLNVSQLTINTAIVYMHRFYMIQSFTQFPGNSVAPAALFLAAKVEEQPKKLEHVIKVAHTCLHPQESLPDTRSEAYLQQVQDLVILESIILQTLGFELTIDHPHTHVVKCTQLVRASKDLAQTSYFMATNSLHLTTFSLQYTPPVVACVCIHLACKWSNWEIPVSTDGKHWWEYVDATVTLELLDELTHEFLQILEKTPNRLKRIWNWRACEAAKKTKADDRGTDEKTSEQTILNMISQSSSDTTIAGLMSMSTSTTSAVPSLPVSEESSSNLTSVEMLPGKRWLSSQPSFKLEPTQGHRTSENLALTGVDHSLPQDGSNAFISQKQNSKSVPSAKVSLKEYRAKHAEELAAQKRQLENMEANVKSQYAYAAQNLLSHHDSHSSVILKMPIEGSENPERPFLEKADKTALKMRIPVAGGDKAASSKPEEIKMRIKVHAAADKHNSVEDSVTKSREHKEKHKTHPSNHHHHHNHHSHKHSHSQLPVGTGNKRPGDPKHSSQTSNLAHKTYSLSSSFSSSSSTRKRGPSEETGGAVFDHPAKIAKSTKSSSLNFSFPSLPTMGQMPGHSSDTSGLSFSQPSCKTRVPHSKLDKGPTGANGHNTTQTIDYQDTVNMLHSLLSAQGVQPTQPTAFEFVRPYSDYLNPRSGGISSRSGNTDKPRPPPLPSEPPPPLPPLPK

Row | SMILES | IC50 (CDK2/CyclinA) | IC50 (CDK9/Cyclin T1)
1 | COc1ccccc1-c1cc(Nc2ccc(NC(=O)[C@@H]3CCCCN3C(=O)OC(C)(C)C)cc2)ncn1 [(29)] | 1 to 10 µM | 1 to 1000 nM
2 | Nc1ccc(C(=O)Nc2ccc(Nc3cc(-c4ccccc4OCc4ccccc4)ncn3)cc2)cc1 [(4)] | 1 to 10 µM | 1 to 1000 nM
3 | Cc1ccc(Nc2cc(-c3cccc(N(C)C)c3)ncn2)cc1NS(C)(=O)=O [(157)] | 1 to 10 µM | 1 to 1000 nM
4 | COc1ccccc1-c1cc(Nc2ccc(NC(=O)c3ccc(N)cc3)cc2)ncn1 [(8)] | 1 to 10 µM | 1 to 1000 nM
5 | COc1ccccc1-c1cc(Nc2ccc(NC(=O)c3ccc4ccccc4c3O)cc2)ncn1 [(139)] | 1 to 10 µM | 1 to 1000 nM
6 | CCCS(=O)(=O)Nc1cc(Nc2cc(-c3cccc(N)c3)ncn2)ccc1C [(116)] | 0.001 to 1 µM | 1 to 1000 nM
7 | CCCN(c1ccc(Nc2cc(-c3ccccc3OC)ncn2)cc1)S(=O)(=O)c1ccc(C)cc1 [(18)] | 10 to 250 µM | 1000 to 10000 nM
8 | COc1ccccc1-c1cc(Nc2ccc(C(=O)Nc3ccccc3)cc2)ncn1 [(52)] | 10 to 250 µM | 1 to 1000 nM
9 | COc1ccccc1-c1cc(Nc2ccc(NC(=O)C34CC5CC(CC(C5)C3)C4)cc2)ncn1 [(61)] | 10 to 250 µM | 1000 to 10000 nM
10 | COc1ccc(-c2cc(Nc3ccc(NC(=O)c4ccc(N)cc4)cc3)ncn2)cc1 [(6)] | 1 to 10 µM | 1 to 1000 nM
11 | COc1cccc(-c2cc(Nc3ccc(C)c(NS(C)(=O)=O)c3)ncn2)c1 [(100)] | 1 to 10 µM | 1000 to 10000 nM
12 | COc1ccccc1-c1cc(Nc2ccc(NC(=O)NC3CCCCC3)cc2)ncn1 [(38)] | 1 to 10 µM | 1 to 1000 nM
13 | Cc1ccc(Nc2cc(-c3ccccc3O)ncn2)cc1NS(C)(=O)=O [(181)] | 0.001 to 1 µM | 1 to 1000 nM
14 | COc1ccccc1-c1cc(Nc2ccc(NC(=O)[C@@H]3CCN3)cc2)ncn1 [(90)] | 1 to 10 µM | 1 to 1000 nM
15 | COc1ccccc1-c1cc(Nc2cccc(C(N)=O)c2)ncn1 [(115)] | 0.001 to 1 µM | 1 to 1000 nM
16 | Cc1ccc(Nc2cc(-c3ccccc3OC(C)C)ncn2)cc1NS(C)(=O)=O [(158)] | 0.001 to 1 µM | 1 to 1000 nM
17 | COc1cccc(OC)c1-c1cc(Nc2ccc(NC(=O)c3ccc(N)cc3)cc2)ncn1 [(51)] | 10 to 250 µM | 1000 to 10000 nM
18 | COc1ccccc1-c1cc(N(C)c2ccc(NS(=O)(=O)c3ccc(C)cc3)cc2)ncn1 [(96)] | 1 to 10 µM | 1000 to 10000 nM
19 | COc1ccccc1-c1cc(Nc2ccc(NS(=O)(=O)c3ccc(C)cc3)cc2)ncn1 [(5)] | 0.001 to 1 µM | 1 to 1000 nM
20 | Cc1ccc(Nc2cc(-c3cccc(N)c3)ncn2)cc1NS(=O)(=O)c1cccc2cccnc12 [(142)] | 10 to 250 µM | 1 to 1000 nM

Row | SMILES | IC50 (CDK2/CyclinA) | IC50 (CDK9/Cyclin T1)
21 | CC(C)(C)C(=O)Nc1ccc(Nc2cc(-c3ccccc3F)ncn2)cc1 [(127)] | 10 to 250 µM | 10000 to 250000 nM
22 | Nc1ccc(C(=O)Nc2ccc(Nc3cc(-c4ccc(O)cc4)ncn3)cc2)cc1 [(16)] | 1 to 10 µM | 1000 to 10000 nM
23 | COc1ccccc1-c1cc(Nc2ccc(NC(=O)c3c[nH]c4ccccc34)cc2)ncn1 [(133)] | 1 to 10 µM | 1 to 1000 nM
24 | COc1cccc(-c2cc(Nc3ccc(NS(=O)(=O)c4ccc(C)cc4)cc3)ncn2)c1 [(2)] | 10 to 250 µM | 10000 to 250000 nM
25 | COc1ccccc1-c1cc(Nc2ccc(NC(=O)C3CCCCC3)cc2)ncn1 [(41)] | 10 to 250 µM | 1000 to 10000 nM
26 | CC(C)Oc1ccccc1-c1cc(Nc2ccc(NC(=O)c3ccc(N)cc3)cc2)ncn1 [(58)] | 0.001 to 1 µM | 1 to 1000 nM
27 | COc1ccccc1-c1cc(Nc2ccc(NC(=O)NCc3ccc(C)cc3)cc2)ncn1 [(112)] | 10 to 250 µM | 1 to 1000 nM
28 | COc1ccc(C(C)C)cc1-c1cc(Nc2ccc(NC(=O)c3ccc(N)cc3)cc2)ncn1 [(35)] | 10 to 250 µM | 10000 to 250000 nM
29 | COc1ccc(Cl)cc1-c1cc(Nc2ccc(NC(=O)c3ccc(N)cc3)cc2)ncn1 [(39)] | 10 to 250 µM | 1000 to 10000 nM
30 | Cc1ccc(Nc2cc(-c3cccc(C#N)c3)ncn2)cc1NS(C)(=O)=O [(163)] | 1 to 10 µM | 1000 to 10000 nM
31 | CCOc1ccccc1-c1cc(Nc2ccc(NC(=O)c3ccc(N)cc3)cc2)ncn1 [(55)] | 1 to 10 µM | 1 to 1000 nM
32 | CS(=O)(=O)Nc1cc(Nc2cc(-c3cccc(N)c3)ncn2)ccc1OCc1ccccc1 [(120)] | 1 to 10 µM | 1000 to 10000 nM
33 | Cc1ccc(S(=O)(=O)Nc2ccc(Nc3cc(-c4ccc(O)cc4)ncn3)cc2)cc1 [(11)] | 0.001 to 1 µM | 1 to 1000 nM
34 | COc1ccc(-c2cc(Nc3ccc(NS(=O)(=O)c4ccc(C)cc4)cc3)ncn2)cc1 [(1)] | 1 to 10 µM | 10000 to 250000 nM
35 | COc1ccccc1-c1cc(Nc2ccc(NC(=O)c3ccc(N4CCN(C)CC4)cc3)cc2)ncn1 [(49)] | 1 to 10 µM | 1 to 1000 nM
36 | c1ccc(COc2ccccc2-c2cc(NCCc3ccncc3)ncn2)cc1 [(7)] | 1 to 10 µM | 1 to 1000 nM
37 | COc1ccccc1-c1cc(Nc2ccc(NS(=O)(=O)c3ccc(-c4ccccc4)cc3)cc2)ncn1 [(34)] | 1 to 10 µM | 1000 to 10000 nM
38 | COc1ccccc1-c1cc(Nc2ccc(NC(=O)Cc3ccccc3)cc2)ncn1 [(71)] | 1 to 10 µM | 1 to 1000 nM
39 | COc1ccccc1-c1cc(Nc2ccc(NC(=N)N)cc2)ncn1 [(53)] | 1 to 10 µM | 1000 to 10000 nM
40 | COc1ccccc1-c1ncnc(Nc2ccc(N)cc2)c1C [(152)] | 10 to 250 µM | 10000 to 250000 nM

Second part, the molecule after the results:

Row | IC50 (CDK2/CyclinA) | IC50 (CDK9/Cyclin T1) | SMILES
41 | 10 to 250 µM | 1000 to 10000 nM | COc1ccccc1-c1cc(Nc2ccc(NC(=O)c3ccc(N)cc3)cc2)nc(N)n1 [(97)]
42 | 10 to 250 µM | 1000 to 10000 nM | COc1ccccc1-c1cc(Nc2ccc(NC(=O)c3ccc4[nH]cnc4c3)cc2)ncn1 [(138)]
43 | 1 to 10 µM | 1000 to 10000 nM | COC(=O)CN(c1ccc(Nc2cc(-c3ccccc3OC)ncn2)cc1)S(=O)(=O)c1ccc(C)cc1 [(28)]
44 | 10 to 250 µM | 10000 to 250000 nM | COc1ccc(-c2cc(NCCc3ccncc3)ncn2)cc1 [(92)]
45 | 0.001 to 1 µM | 1 to 1000 nM | O=C(Nc1ccc(Nc2cc(-c3ccccc3OCc3ccccc3)ncn2)cc1)[C@@H]1CCCCN1 [(164)]
46 | 1 to 10 µM | 1 to 1000 nM | CC(C)Oc1ccccc1-c1cc(NCCc2ccncc2)ncn1 [(99)]
47 | 10 to 250 µM | 10000 to 250000 nM | CC(C)(C)C(=O)Nc1ccc(Nc2cc(-c3ccccc3C(F)(F)F)ncn2)cc1 [(114)]
48 | 10 to 250 µM | 10000 to 250000 nM | CN1CCC(Nc2cc(Nc3ccc(NC(=O)C(C)(C)C)cc3)ncn2)CC1 [(74)]
49 | 1 to 10 µM | 1000 to 10000 nM | COc1cccc(-c2cc(Nc3ccc(NC(=O)c4ccc(N)cc4)cc3)ncn2)c1OC [(56)]
50 | 10 to 250 µM | 1000 to 10000 nM | Oc1ccccc1-c1cc(NCCc2ccncc2)ncn1 [(94)]
51 | 0.001 to 1 µM | 1 to 1000 nM | CCCS(=O)(=O)Nc1ccc(Nc2cc(-c3ccccc3OC)ncn2)cc1 [(154)]
52 | 10 to 250 µM | 1000 to 10000 nM | Nc1ccc(C(=O)Nc2ccc(Nc3cc(-c4cccs4)ncn3)cc2)cc1 [(77)]
53 | 10 to 250 µM | 1000 to 10000 nM | COc1ccccc1-c1cc(Nc2ccc(NC(=O)c3ccncc3)cc2)ncn1 [(50)]
54 | 10 to 250 µM | 1000 to 10000 nM | COc1ccccc1-c1cc(Nc2ccc(NC(=O)c3nc4ccccc4s3)cc2)ncn1 [(84)]
55 | 1 to 10 µM | 1 to 1000 nM | COc1ccccc1-c1cc(Nc2ccc(C(=O)Nc3ccc(N4CCOCC4)cc3)cc2)ncn1 [(125)]
56 | 1 to 10 µM | 1 to 1000 nM | COc1ccccc1-c1cc(Nc2ccc(NC(=O)C(C)(C)C)cc2)ncn1 [(19)]
57 | 1 to 10 µM | 1 to 1000 nM | COc1ccccc1-c1cc(Nc2ccc(C(=O)Nc3ccc(O)cc3)cc2)ncn1 [(136)]
58 | 10 to 250 µM | 1000 to 10000 nM | C=Cc1ccccc1-c1cc(Nc2ccc(NC(=O)C(C)(C)C)cc2)ncn1 [(126)]
59 | 1 to 10 µM | 1 to 1000 nM | Nc1cccc(-c2cc(Nc3cccc(S(N)(=O)=O)c3)ncn2)c1 [(214)]
60 | 1 to 10 µM | 1000 to 10000 nM | COC(=O)/C=C/c1cccc(-c2cc(Nc3ccc(C)c(NS(C)(=O)=O)c3)ncn2)c1 [(182)]
61 | 1 to 10 µM | 1000 to 10000 nM | COc1ccccc1-c1cc(Nc2ccc(NC(=O)CC(C)(C)C)cc2)ncn1 [(42)]
62 | 10 to 250 µM | 1 to 1000 nM | COc1ccccc1-c1cc(Nc2ccc(NC(=O)c3ccc4ccccc4n3)cc2)ncn1 [(98)]
63 | 1 to 10 µM | 1 to 1000 nM | COc1ccccc1-c1cc(Nc2ccc(NC(=O)c3ccccc3N)cc2)ncn1 [(20)]
64 | 1 to 10 µM | 1 to 1000 nM | Cc1ccc(Nc2cc(-c3cccc(N)c3)ncn2)cc1NS(=O)(=O)c1ccccc1 [(109)]
65 | 0.001 to 1 µM | 1000 to 10000 nM | COC(=O)CN(c1ccc(Nc2cc(-c3ccc(O)cc3)ncn2)cc1)S(=O)(=O)c1ccc(C)cc1 [(27)]
66 | 1 to 10 µM | 1000 to 10000 nM | COc1ccccc1-c1cc(Nc2cccc(NC(=O)C(C)(C)C)c2)ncn1 [(122)]
67 | 1 to 10 µM | 1000 to 10000 nM | Cc1ccc(Nc2cc(-c3cccc(CO)c3)ncn2)cc1NS(C)(=O)=O [(183)]
68 | 1 to 10 µM | 1 to 1000 nM | COc1ccc(-c2cc(Nc3ccc(C(=O)N[C@@H]4CCCC[C@H]4N)cc3)ncn2)cc1 (racemic) [(161)]
69 | 0.001 to 1 µM | 1 to 1000 nM | Cc1ccc(Nc2cc(-c3ccccc3OCc3ccccc3)ncn2)cc1NS(C)(=O)=O [(156)]
